The source of these data is US10118935B2, “Melampomagnolide B dimers” (priority 2014, dated 2018).

Read-outs that look alike come from different tables or passages of the source.

The test system of one series is EKVX. As to the kind of experiment: NCI 60 cell line five dose, Non-Small Cell Lung Cancer. In kind it is cell-based, human. The following applies: for CC50: read-out: LC50 (the source's name).

A word on the GI50: it is the concentration giving 50% growth inhibition. High values mean less potent growth inhibition, low ones more potent growth inhibition. Consider `C=C1C(=O)O[C@H]2[C@H]1CC/C(COC(=O)NCCCCCCCCNC(=O)OC/C1=C/CC[C@@]3(C)O[C@H]3[C@H]3OC(=O)C(=C)[C@@H]3CC1)=C\CC[C@@]1(C)O[C@@H]21` [JVM 3-62, bis(((1aR,7aS, 10aS, 10bS, E)-1a-Methyl-8-methylene-9-oxo-1a,2,3,6,7,7a,8,9,10a,10b-decahydrooxireno[2′,3′:9,10]cyclodeca[1,2-b]furan-5-yl)methyl)octane-1,8-diyldicarbamate], for which the “Percent Growth” value is recorded as −98% in the series with EKVX (Log10 Concentration −4.0); −99% in the series with EKVX (Log10 Concentration −5.0); 62% in the series with EKVX (Log10 Concentration −6.0); 90% in the series with EKVX (Log10 Concentration −7.0); 91% with EKVX (Log10 Concentration −8.0). Also, growth in the series on EKVX (molar) was halved (GI50) at 1.19 µM. The TGI in the series with EKVX (molar) was found to be 2.44E−6. Further, the CC50 in the series on EKVX (molar) amounted to 4.99 µM.
Regarding `C=C1C(=O)O[C@H]2[C@H]1CC/C(COC(=O)CCC(=O)NCCCCCCCCCNC(=O)CCC(=O)OC/C1=C/CC[C@@]3(C)O[C@H]3[C@H]3OC(=O)C(=C)[C@@H]3CC1)=C\CC[C@@]1(C)O[C@@H]21` [JVM 2-92, bis(((1aR,7aS,10aS,10bS,E)-1a-Methyl-8-methylene-9-oxo-1a,2,3,6,7,7a,8,9,10a,10b-decahydrooxireno[2′,3′:9,10]cyclodeca[1,2-b]furan-5-yl)methyl)4,4′-(nonane-1,9-diylbis(azanediyl))bis (4-oxobutanoate)], the CC50 in the series on DU-145 was 5.78 µM; in the series on SK-MEL-5, 9.37 µM; in the series on SK-MEL-28 it was 6.22 µM; in the series on NCI-H226, 8.6 µM; with MDA-MB-435, 7.25 µM; in the series with RPMI-8226 it was greater than 100 µM. Moreover, the CC50 in the series on HCT-116 was 4.97 µM; in the series with TK-10, 6.02 µM; with SK-OV-3 it was 49.1 µM; in the series on CCRF-CEM, greater than 100 µM; with OVCAR-5 it was 7.06 µM; with LOX IMVI it was 4.06 µM. Also, the CC50 in the series on SN12C was 49.7 µM; with MDA-MB-231/ATCC, 13.3 µM; in the series on KM12, 50.2 µM; in the series on NCI/ADR-RES, greater than 100 µM; in the series with MOLT-4 it was greater than 100 µM; with HCT-15 it was 46 µM. Moreover, the CC50 in the series on A498 was 31.3 µM; in the series on SF-268 it was 42.4 µM; with PC-3 it was 29.6 µM; with SF-539, 9.95 µM; in the series on MALME-3M, 8.93 µM; in the series on HT29, 5.69 µM. Besides, the CC50 was 17.2 µM in the series with ACHN; 4.65 µM with BT-549; 9.82 µM in the series with HCC-2998; 5.3 µM in the series with OVCAR-3; greater than 100 µM in the series on T-47D.
Turning to `C=C1C(=O)O[C@H]2[C@H]1CC/C(COC(=O)CCC(=O)NCCCCCCCCNC(=O)CCC(=O)OC/C1=C/CC[C@@]3(C)O[C@H]3[C@H]3OC(=O)C(=C)[C@@H]3CC1)=C\CC[C@@]1(C)O[C@@H]21` [JVM 2-87, bis(((1aR,7aS,10aS,10bS,E)-1a-Methyl-8-methylene-9-oxo-1a,2,3,6,7,7a,8,9,10a,1b-decahydrooxireno[2′,3′:9,10]cyclodeca[1,2-b]furan-5-yl)methyl)4,4′-(octane-1,8-diylbis(azanediyl))bis(4-oxobutanoate)], the CC50 was 6.81 µM with DU-145; 38.4 µM with SK-MEL-5; 6.32 µM in the series on SK-MEL-28; 15.7 µM with NCI-H226; 7.58 µM in the series with MDA-MB-435; greater than 100 µM in the series on RPMI-8226. The CC50 is 5.41 µM with HCT-116; 7.46 µM in the series on TK-10; 47.9 µM in the series on SK-OV-3; greater than 100 µM in the series on CCRF-CEM; 7.31 µM in the series with OVCAR-5; 5.56 µM in the series with LOX IMVI. Also, the CC50 with SN12C is 53.8 µM; in the series with MDA-MB-231/ATCC, 9.88 µM; in the series with KM12 it was 53.4 µM; in the series with NCI/ADR-RES, greater than 100 µM; in the series with MOLT-4, greater than 100 µM; in the series on HCT-15, 43.2 µM. Also, the CC50 came to 49.6 µM with A498; 42.4 µM with SF-268; 20.9 µM in the series on SF-539; 8 µM in the series on MALME-3M; 5.92 µM in the series on HT29; 34.7 µM in the series on ACHN. The CC50 with BT-549 was determined as 5.12 µM; in the series on HCC-2998, 63.6 µM; with OVCAR-3, 5.31 µM.
Regarding `C=C1C(=O)O[C@H]2[C@H]1CC/C(COC(=O)NCCCCNC(=O)OC/C1=C/CC[C@@]3(C)O[C@H]3[C@H]3OC(=O)C(=C)[C@@H]3CC1)=C\CC[C@@]1(C)O[C@@H]21` [JVM 3-54, bis(((1aR,7aS,10aS,10bS,E)-1a-Methyl-8-methylene-9-oxo-1a,2,3,6,7,7a,8,9,10a,10b-decahydrooxireno[2′,3′:9,10]cyclodeca[1,2-b]furan-5-yl)methyl)butane-1,4-diyldicarbamate], it took 3.69 µM to inhibit growth in the series with EKVX by half (GI50). The same molecule had a TGI in the series with EKVX of 1.35e-05 M. The “Percent Growth” value in the series with EKVX (Log10 Concentration −4.0) is recorded as −98%; in the series on EKVX (Log10 Concentration −5.0), 15%; in the series with EKVX (Log10 Concentration −6.0), 96%; in the series on EKVX (Log10 Concentration −7.0), 92%; with EKVX (Log10 Concentration −8.0), 97%. The CC50 in the series on EKVX is 37.3 µM.
